For 15 compounds, Emax and EC50 results are on record in US10245264B2, “Substituted imidazo[1,2-a]pyrazines as soluble guanylate cyclase activators” (Merck Sharp & Dohme Corp., priority 2015, dated 2019).

The target in the test is T1, sGC α1/β1 heterodimer stably expressed in CHO-K1 cells (CHO-K1/sGC) (Homo sapiens, UniProt Q02108+Q02153).
T1 construct: expressed in transfected cells
T1 sequence (Q02108 1-690): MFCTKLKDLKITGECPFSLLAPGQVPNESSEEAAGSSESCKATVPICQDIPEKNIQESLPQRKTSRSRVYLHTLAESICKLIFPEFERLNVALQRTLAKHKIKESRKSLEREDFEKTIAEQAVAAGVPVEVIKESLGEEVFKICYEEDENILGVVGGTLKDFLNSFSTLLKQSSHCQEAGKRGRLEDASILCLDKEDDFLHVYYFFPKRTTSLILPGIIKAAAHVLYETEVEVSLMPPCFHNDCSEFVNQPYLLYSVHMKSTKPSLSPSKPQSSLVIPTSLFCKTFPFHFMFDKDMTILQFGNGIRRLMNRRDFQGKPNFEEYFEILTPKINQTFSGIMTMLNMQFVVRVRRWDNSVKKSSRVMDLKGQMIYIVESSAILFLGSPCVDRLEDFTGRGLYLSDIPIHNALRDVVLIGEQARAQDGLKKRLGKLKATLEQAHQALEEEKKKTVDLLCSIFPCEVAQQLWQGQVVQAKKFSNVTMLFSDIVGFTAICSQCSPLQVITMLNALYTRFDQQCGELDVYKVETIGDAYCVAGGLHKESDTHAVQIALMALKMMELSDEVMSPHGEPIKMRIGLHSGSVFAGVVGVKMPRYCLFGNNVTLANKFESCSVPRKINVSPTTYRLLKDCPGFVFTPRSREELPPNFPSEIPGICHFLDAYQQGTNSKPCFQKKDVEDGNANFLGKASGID
T1 sequence (Q02153 1-619): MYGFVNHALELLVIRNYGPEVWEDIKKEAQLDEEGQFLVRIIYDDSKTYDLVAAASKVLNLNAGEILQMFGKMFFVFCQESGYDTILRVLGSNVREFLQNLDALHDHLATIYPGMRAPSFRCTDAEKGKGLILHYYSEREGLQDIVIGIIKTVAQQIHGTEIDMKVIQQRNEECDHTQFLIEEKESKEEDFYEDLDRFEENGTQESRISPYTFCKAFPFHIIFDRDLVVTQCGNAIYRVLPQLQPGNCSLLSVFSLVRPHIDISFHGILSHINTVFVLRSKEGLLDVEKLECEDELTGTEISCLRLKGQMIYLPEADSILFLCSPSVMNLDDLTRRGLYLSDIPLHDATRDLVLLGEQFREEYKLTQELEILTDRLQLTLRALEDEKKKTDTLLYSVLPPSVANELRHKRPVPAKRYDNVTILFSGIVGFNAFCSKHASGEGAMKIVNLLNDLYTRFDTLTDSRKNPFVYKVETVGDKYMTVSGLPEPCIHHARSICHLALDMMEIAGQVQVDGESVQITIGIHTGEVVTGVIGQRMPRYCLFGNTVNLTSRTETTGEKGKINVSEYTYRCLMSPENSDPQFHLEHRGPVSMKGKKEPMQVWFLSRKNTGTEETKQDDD
The experiment in a line: Cell-based sGC functional assay (CASA assay), cGMP generation by HTRF. To be noted: for Emax: CHO-K1, maximum cGMP production of Compound A set to 100% activation, read-out: % Act. (percent activation relative to Compound A); for EC50: CHO-K1/sGC cells, 1 hr at 37° C., 4P fit, presence or absence of DETA-NO not given, read-out: IP (nM) (inflection point). The source says: Biological Assay 1: Cell-Based sGC Functional Assay (CASA Assay) Rationale
sGC is a heme-containing enzyme that converts GTP to secondary messenger cGMP. Increases in cGMP levels affect several physiological processes including vasorelaxation through multiple downstream pathways. […] Heme-dependent activators (HDAs) preferentially activate sGC containing a ferrous heme group. To determine the effect of sGC activators on enzyme activity, the CASA assay was developed to monitor the generation of cGMP in a cell line that stably expresses the heterodimeric sGC protein.
A CHO-K1 cell line stably expressing the sGC α1/β1 heterodimer was generated using a standard transfection protocol. CHO-K1 cells were transfected with plasmids pIREShyghsGCα1 and pIRESneo-hsGCβ1 simultaneously using FUGENE reagent. Clones that stably express both subunits were selected with hygromycin and neomycin for ˜2 weeks. Clone #7 was chosen for the assay and was designated CHO-K1/sGC. CHO-K1/sGC cells were maintained in F-K12 medium containing 10% heat-inactivated Fetal Bovine Serum (FBS), 100 μg/mL penicillin/streptomycin, 0.5 mg/mL hygromycin and 0.25 mg/mL G418. The cells were then cryopreserved in LN2. On the day of the assay, cells were thawed and resuspended in EBSS Assay Buffer (Sigma, E3024) supplemented with 5 mM MgCl2, 10 mM HEPES (4-(2-hydroxyethyl)piperazine-1-ethanesulfonic acid) and 0.05% BSA (bovine serum albumin) (EAB) and cell density was then adjusted to 4×10^5/mL with EAB. IBMX (3-isobutyl-1-methylxanthin, 0.5 mM) was added to inhibit degradation of cGMP. Compounds were diluted from DMSO stock solutions and added to the assay at a final DMSO concentration of 2.5%. Cells were incubated with compounds in the presence and absence of 1 μM of Diethylenetriamine/nitric oxide adduct (DETA-NO; Sigma, 17018) for 1 hr at 37° C. At the end of the incubation period, the reaction was terminated and the cells were lysed with the detection reagents from Cisbio Kits. The level of intracellular cGMP was determined using an HTRF-based assay kit (CisBio, 62GM2PEC), which detects the displacement of a fluorescence labeled cGMP from its specific antibody. The cGMP produced by test compounds was directly compared to the maximum cGMP production (this value was set to equal 100% activation.) of the published sGC-HDA Compound A:
[drawing 101] (Example 1 in WO 2010/065275, published Jun. 10, 2010). The test compounds' activities were then expressed as a percentage of Compound A, the standard in every experiment. This percent activation was calculated either in the presence or absence of DETA-NO which was then plotted. IP and maximum fold induction was derived using ADA analysis software for 4P fit.
The compounds in the Examples of the instant invention had inflection points (IP) less than or equal to 10 μM and many had IPs less than or equal to about 1 μM.
A general note: In TR-FRET formats the signal depends on donor and acceptor labels being close together.

Turning to `CC1(c2ccc(F)cc2)C(=O)Nc2nc(-c3cn4ccnc4c(Oc4ccc(F)c(F)c4F)n3)nc(N)c21` (stereo not drawn) [Example 16A, 4-amino-5-(4-fluorophenyl)-5-methyl-2-[8-(2,3,4-trifluorophenoxy)imidazo[1,2-a]pyrazin-6-yl]-5,7-dihydro-6H-pyrrolo [2,3-d]pyrimidin-6-one], the Emax turned out to be 89% and the EC50 was 37 nM.
As to `CC1(c2ccc(F)cc2)C(=O)Nc2nc(-c3cn4ccnc4c(Oc4cc(F)cc(F)c4F)n3)nc(N)c21` (stereo not drawn) [Example 17A, 4-amino-5-(4-fluorophenyl)-5-methyl-2-[8-(2,3,5-trifluorophenoxy)imidazo[1,2-a]pyrazin-6-yl]-5,7-dihydro-6H-pyrrolo [2,3-d]pyrimidin-6-one], the Emax was 100% and the EC50 was found to be 17 nM.
The matching figures for `CC1(c2ccc(F)cc2)C(=O)Nc2nc(-c3cn4ccnc4c(Oc4ccc(F)c(F)c4)n3)nc(N)c21` (stereo not drawn) [Example 18A, 4-amino-2-[8-(3,4-difluorophenoxy)imidazo[1,2-a]pyrazin-6-yl]-5-(4-fluorophenyl)-5-methyl-5,7-dihydro-6H-pyrrolo[2,3-d] pyrimidin-6-one]: 98% and 10 nM.
Consider `CC1(c2ccc(F)cc2)C(=O)Nc2nc(-c3cn4ccnc4c(Oc4ccc(F)cc4F)n3)nc(N)c21` (stereo not drawn) [Example 19A, 4-amino-2-[8-(2,4-difluorophenoxy)imidazo[1,2-a]pyrazin-6-yl]-5-(4-fluorophenyl)-5-methyl-5,7-dihydro-6H-pyrrolo[2,3-d] pyrimidin-6-one], for which the Emax amounted to 109% and the EC50 was found to be 74 nM.
`CC1(c2ccc(F)cc2)C(=O)Nc2nc(-c3cn4ccnc4c(Oc4ccc(F)cc4)n3)nc(N)c21` (stereo not drawn) [Example 20A, 4-amino-2-[8-(4-fluorophenoxy)imidazo[1,2-a]pyrazin-6-yl]-5-(4-fluorophenyl)-5-methyl-5,7-dihydro-6H-pyrrolo[2,3-d] pyrimidin-6-one]: the Emax turned out to be 109% and the EC50 was 42 nM.
As to `CC1(c2ccc(F)cc2)C(=O)Nc2nc(-c3cn4ccnc4c(Oc4cncc(C(F)(F)F)c4)n3)nc(N)c21` (stereo not drawn) [Example 21A, 4-amino-5-(4-fluorophenyl)-5-methyl-2-(8-{[5-(trifluoromethyl)pyridin-3-yl]oxy}imidazo[1,2-a]pyrazin-6-yl)-5,7-dihydro-6H-pyrrolo[2,3-d] pyrimidin-6-one], the Emax was determined as 137% and the EC50 is 1060 nM.
As to `CC1(c2ccc(F)cc2)C(=O)Nc2nc(-c3cn4ccnc4c(OC4CCCCC4)n3)nc(N)c21` (stereo not drawn) [Example 22A, 4-amino-2-[8-(cyclohexyloxy)imidazo[1,2-a]pyrazin-6-yl]-5-(4-fluorophenyl)-5-methyl-5,7-dihydro-6H-pyrrolo[2,3-d] pyrimidin-6-one], the Emax was determined as 107% and the EC50 was 171 nM.
The matching figures for `CC1(c2ccc(F)cc2)C(=O)Nc2nc(-c3cn4ccnc4c(Oc4cc(F)cc(F)c4)n3)nc(N)c21` (stereo not drawn) [Example 23A, 4-amino-2-[8-(3,5-difluorophenoxy)imidazo[1,2-a]pyrazin-6-yl]-5-(4-fluorophenyl)-5-methyl-5,7-dihydro-6H-pyrrolo[2,3-d] pyrimidin-6-one]: 100% and 16 nM.
Taken in the same sequence, the figures for `CC1(C)C(=O)Nc2nc(-c3cn4ccnc4c(Oc4cc(F)cc(F)c4)n3)nc(N)c21` [Example 24, 4-amino-2-[8-(3,5-difluorophenoxy)imidazo[1,2-a]pyrazin-6-yl]-5,5-dimethyl-5,7-dihydro-6H-pyrrolo[2,3-d] pyrimidin-6-one] were 89% and 238 nM.
With `CC1(c2ccc(F)cc2)C(=O)Nc2nc(-c3cn4ccnc4c(Oc4cc(F)ccc4F)n3)nc(N)c21` (stereo not drawn) [Example 25A, 4-amino-2-[8-(2,5-difluorophenoxy)imidazo[1,2-a]pyrazin-6-yl]-5-(4-fluorophenyl)-5-methyl-5,7-dihydro-6H-pyrrolo[2,3-d] pyrimidin-6-one], the Emax was found to be 97% and the EC50 came to 32 nM.
Regarding `CC1(C)C(=O)Nc2nc(-c3cn4ccnc4c(Oc4cc(F)ccc4F)n3)nc(N)c21` [Example 26, 4-amino-2-[8-(2,5-difluorophenoxy)imidazo[1,2-a]pyrazin-6-yl]-5,5-dimethyl-5,7-dihydro-6H-pyrrolo[2,3-d] pyrimidin-6-one], the Emax was 105% and the EC50 was 718 nM.
The matching figures for `CC1(c2ccc(Cl)cc2)C(=O)Nc2nc(-c3cn4ccnc4c(Oc4cc(F)ccc4F)n3)nc(N)c21` (stereo not drawn) [Example 27A, 4-amino-5-(4-chlorophenyl)-2-[8-(2,5-difluoro-phenoxy)imidazo [1,2-a]pyrazin-6-yl]-5-methyl-5,7-dihydro-6H-pyrrolo[2,3-d] pyrimidin-6-one]: 128% and 47 nM.
Regarding `CC1(c2ccc(Cl)cc2)C(=O)Nc2nc(-c3cn4ccnc4c(OC4CCC(F)(F)CC4)n3)nc(N)c21` (stereo not drawn) [Example 28A, 4-amino-5-(4-chlorophenyl)-2-{8-[(4,4-difluorocyclohexyl)oxy]imidazo[1,2-a]pyrazin-6-yl}-5-methyl-5,7-dihydro-6H-pyrrolo[2,3-d] pyrimidin-6-one], the Emax stood at 139% and the EC50 stood at 1160 nM.
With `CC1(c2ccc(F)cc2)C(=O)Nc2nc(-c3cn4ccnc4c(Oc4cccnc4)n3)nc(N)c21` (stereo not drawn) [Example 29A, 4-amino-5-(4-fluorophenyl)-5-methyl-2-[8-(pyridin-3-yloxy)imidazo[1,2-a]pyrazin-6-yl]-5,7-dihydro-6H-pyrrolo[2,3-d] pyrimidin-6-one], the Emax is 158% and the EC50 worked out at 422 nM.
`CC1(c2ccc(F)cc2)C(=O)Nc2nc(-c3cn4ccnc4c(OCC4CC(F)(F)C4)n3)nc(N)c21` (stereo not drawn) [Example 31A, 4-amino-2-{8-[(3,3-difluoro-cyclobutyl)methoxy]imidazo [1,2-a]pyrazin-6-yl}-5-(4-fluoro-phenyl)-5-methyl-5,7-dihydro-6H-pyrrolo[2,3-d] pyrimidin-6-one]: the Emax amounted to 98% and the EC50 stood at 145 nM.
